Experimental findings from patent US7276502B2, “Thiazoles useful as inhibitors of protein kinases” (Vertex Pharmaceuticals Incorporated, priority 2003, dated 2007) are described below.

The structures appear in SMILES notation. Where two headings read alike, the source gives them in different places.

One experiment addresses SYK (Homo sapiens, UniProt P43405). Briefly: SYK inhibition assay (standard coupled enzyme assay). The format is biochemical. On the procedure: Reactions were carried out in 100 mM HEPES (pH 7.5), 10 mM MgCl2, 25 mM NaCl, 1 mM DTT and 1.5% DMSO. Final substrate concentrations in the assay were 200 μM ATP (Sigma chemical Co.) and 4 μM poly Gly-Tyr peptide (Sigma Chemical Co.). Assays were carried out at 30° C. and 200 nM SYK. Final concentrations of the components of the coupled enzyme system were 2.5 mM phosphoenolpyruvate, 300 μM NADH, 30 μg/ml pyruvate kinase and 10 μg/ml lactate dehydrogenase.
An assay stock buffer solution was prepared containing all of the reagents listed above, with the exception of SYK, DTT, and the test compound of interest of the present invention. 56 μl of the test reaction was placed in a 96 well plate followed by the addition of 1 μl of 2 mM DMSO stock containing the test compound of the present invnetion (final compound concentration 30 μM).

For the next experiment, the target named is T1, ZAP-70 (Homo sapiens, UniProt P43403).
T1 sequence (P43403 1-619): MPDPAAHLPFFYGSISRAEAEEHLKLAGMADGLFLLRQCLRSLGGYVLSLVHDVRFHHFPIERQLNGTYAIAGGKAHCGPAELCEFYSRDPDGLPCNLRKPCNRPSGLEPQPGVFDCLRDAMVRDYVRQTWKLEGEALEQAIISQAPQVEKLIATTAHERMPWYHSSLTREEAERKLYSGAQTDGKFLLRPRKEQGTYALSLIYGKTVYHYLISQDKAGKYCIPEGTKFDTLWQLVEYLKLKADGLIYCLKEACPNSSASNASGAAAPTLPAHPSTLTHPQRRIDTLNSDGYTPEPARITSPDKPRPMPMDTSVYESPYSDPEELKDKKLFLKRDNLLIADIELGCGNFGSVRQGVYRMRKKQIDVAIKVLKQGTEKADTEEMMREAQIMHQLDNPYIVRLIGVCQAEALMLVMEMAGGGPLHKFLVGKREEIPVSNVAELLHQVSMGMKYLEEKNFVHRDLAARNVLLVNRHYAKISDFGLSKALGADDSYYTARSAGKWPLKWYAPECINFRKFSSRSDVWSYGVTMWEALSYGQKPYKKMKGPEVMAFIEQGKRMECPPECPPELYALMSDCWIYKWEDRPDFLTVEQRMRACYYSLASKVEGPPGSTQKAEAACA
Briefly: ZAP-70 inhibition assay (standard coupled enzyme assay). The format is biochemical. Conditions: 100 μM ATP, 20 μM poly-4EY peptide, 30° C., 60 nM ZAP-70. On the procedure:
Compounds were screened for their ability to inhibit ZAP-70 using a standard coupled enzyme assay (Fox et al., Protein Sci. 1998, 7, 2249). Assays were carried out in a mixture of 100 mM HEPES (pH 7.5), 10 mM MgCl2, 25 mM NaCl, 2 mM DTT and 3% DMSO. Final substrate concentrations in the assay were 100 μM ATP (Sigma Chemicals) and 20 μM peptide (poly-4EY, Sigma Chemicals). Assays were carried out at 30° C. and 60 nM ZAP-70. Final concentrations of the components of the coupled enzyme system were 2.5 mM phosphoenolpyruvate, 300 μM NADH, 30 μg/ml pyruvate kinase and 10 μg/ml lactate dehydrogenase.
An assay stock buffer solution was prepared containing all of the reagents listed above, with the exception of ZAP-70 and the test compound of interest of the present invention. 55 μl of the stock solution was placed in a 96 well plate followed by addition of 2 μl of DMSO stock containing serial dilutions of the test compound of the present invention (typically starting from a final concentration of 15 μM). The plate was preincubated for 10 minutes at 30° C. and the reaction initiated by addition of 10 μl of enzyme (final concentration 60 nM). Initial reaction rates were determined with a Molecular Devices SpectraMax Plus plate reader over a 15 minute time course. Ki data was calculated from non-linear regression analysis using the Prism software package (GraphPad Prism version 3.0a for Macintosh, GraphPad Software, San Diego Calif., USA).

Setting [1] is: coupled enzyme assay, 200 μM ATP, 4 μM poly Gly-Tyr peptide, 30° C., read-out: Ki (SYK).

As a reminder, the Ki is the dissociation constant of the complex between target and ligand, obtained from inhibition or displacement. Regarding `CSc1cccc(Nc2nccc(-c3ncc(C)s3)n2)c1` [Example I-130], the Ki on SYK (setting [1]) and on ZAP-70 was no more than 5 µM throughout.

`CSc1ccc(Nc2nccc(-c3ncc(C)s3)n2)cc1` [Example I-131]: the Ki at SYK (setting [1]) and on ZAP-70 was no more than 5 µM each time.

In the case of `Cc1cc(C)cc(Nc2nccc(-c3ncc(C(=O)N4CCNCC4)s3)n2)c1` [Example I-134], the Ki at SYK (setting [1]) and on ZAP-70 was no more than 5 µM in each case.

On to `Cc1cnc(-c2ccnc(Nc3ccc4ncsc4c3)n2)s1` [Example I-135], for which the Ki on SYK (setting [1]) and at ZAP-70 was no more than 5 µM throughout.

As to `Cc1cnc(-c2ccnc(Nc3ccc4[nH]nc(C)c4c3)n2)s1` [Example I-136], the Ki at SYK (setting [1]) and at ZAP-70 was no more than 5 µM in each case.

Turning to `Cc1cc(C)cc(Nc2nccc(-c3ncc(C(=O)Nc4ccccc4)s3)n2)c1` [Example I-137], the Ki on SYK (setting [1]) and on ZAP-70 was no more than 5 µM in each case.

With `Cc1cc(C)cc(Nc2nccc(-c3ncc(C(=O)NCCN)s3)n2)c1` [Example I-138], the Ki at SYK (setting [1]) and at ZAP-70 was no more than 5 µM in each case.

On to `Cc1cnc(-c2ccnc(Nc3ccc(N)cc3)n2)s1` [Example I-140], for which the Ki on SYK (setting [1]) and at ZAP-70 was no more than 5 µM throughout.

In the case of `Cc1cc(C)cc(Nc2nccc(-c3ncc(CNc4ccccc4)s3)n2)c1` [Example I-141], the Ki on SYK (setting [1]) and on ZAP-70 was no more than 5 µM each time.

With `Cc1cc(C)cc(Nc2nccc(-c3ncc(NCCN)s3)n2)c1` [Example I-142], the Ki at SYK (setting [1]) and at ZAP-70 was no more than 5 µM each time.

As for `COc1cc(Nc2nccc(-c3ncc(Cl)s3)n2)cc(OC)c1OC` [Example I-143], the Ki at SYK (setting [1]) and on ZAP-70 was no more than 5 µM each time.

Consider `OCc1cnc(-c2ccnc(Nc3cc(O)cc(C(F)(F)F)c3)n2)s1` [Example I-144], for which the Ki on SYK (setting [1]) and on ZAP-70 was no more than 5 µM throughout.

Take `COc1cc(Nc2nccc(-c3ncc(N4CCNCC4)s3)n2)cc(OC)c1OC` [Example I-145]: the inhibitory constant (Ki) at SYK (setting [1]) and at ZAP-70 was no more than 5 µM throughout.

Consider `OCc1csc(-c2ccnc(Nc3cc(O)cc(C(F)(F)F)c3)n2)n1` [Example I-146], for which the Ki at SYK and on ZAP-70 was no more than 5 µM each time.

On to `CC(=O)OCc1cnc(-c2ccnc(Nc3ccccc3OCc3ccccc3)n2)s1` [Example I-149], for which the Ki at SYK (setting [1]) and on ZAP-70 was no more than 5 µM in each case.

For `OCc1cnc(-c2ccnc(Nc3ccccc3OCc3ccccc3)n2)s1` [Example I-150], the Ki on SYK (setting [1]) and on ZAP-70 was no more than 5 µM throughout.

`Cc1cnc(-c2ccnc(Nc3ccncc3)n2)s1` [Example I-152]: the Ki at SYK (setting [1]) and on ZAP-70 was no more than 5 µM in each case.

`Cc1cnc(-c2ccnc(Nc3ccc(NC(=O)CCNC(=O)OC(C)(C)C)cc3)n2)s1` [Example I-153]: the Ki on SYK (setting [1]) and on ZAP-70 was no more than 5 µM in each case.

On to `CC(=O)Nc1cc(C)cc(Nc2nccc(-c3ncc(C)s3)n2)c1` [Example I-154], for which the Ki on SYK (setting [1]) and at ZAP-70 was no more than 5 µM throughout.

For `Cc1cc(Nc2nccc(-c3ncc(C)s3)n2)cc(NS(C)(=O)=O)c1` [Example I-155], the Ki on SYK (setting [1]) and at ZAP-70 was no more than 5 µM throughout.

In the case of `COCc1cc(N)cc(Nc2nccc(-c3ncc(C)s3)n2)c1` [Example I-156], the Ki at SYK (setting [1]) and at ZAP-70 was no more than 5 µM in each case.
